The data set can be described thus: In vitro release of olopatadine from polymer gel films (USP Apparatus 7, HPLC-UV). Particulars: FIGS. 1A and 1B. The format is physicochemical. Here is the method:
Release of olopatadine from polymer gel films was studied in vitro using water or phosphate buffered saline (PBS) as the dissolution media. Dissolution was performed using USP Apparatus 7 and samples were collected by its autosampler. HPLC—with UV-vis detector was used to measure component concentration during dissolution samples at different time points. […] Olopatadine HCl remains as a zwitterion at physiological pH due to the negatively charged carboxylic group and positively charged tertiary amino group on the molecule, therefore possible mechanism of API release from the gel films into dissolution media is through ion exchange. HA in gel films may complex with olopatadine through ionic interaction. […] Dissolution media plays a main role in the release profiles, as ionic bonding occurred between HA and Olopatadine. Ionic polymer provides some prolong release. Diffusion is believed to be the main release mechanism. PBS: phosphate-buffered saline pH 7.2; DI water: deionized water.

`CN(C)CC/C=C1/c2ccccc2COc2ccc(CC(=O)O)cc21.Cl` [olopatadine, 11-[(Z)-3-(Dimethylamino)propylidene]-6-11-dihydrodibenz[b,e] oxepin-2-acetic acid hydrochloride]: the “Olopatadine release rate, PBS versus water” value (dissolution media PBS pH 7.2 or DI water) was “faster in PBS than in water”. For the same molecule, for the setting “water and PBS”, the “Burst release of olopatadine” value is given as “no burst release”.

For the origin of these results see patent US20250195416A1, “DISSOLVABLE POLYMERIC OCULAR INSERT FOR DRUGS DELIVERY” (Alcon Inc., priority 2023, published 2025).
